The values that follow come from patent US10633399B2, “Functionalized aminobenzoboroxoles” (Channel Therapeutics, Inc., priority 2015, dated 2020).

The viability is a read-out of living cells in per cent, often relative to untreated cells. What is called melting point is the temperature, or range, at which the solid turns liquid. One may read the IC50 as the concentration at which inhibition is half-maximal.

The nature of data set [1]: Cell viability assay (MTT), MDA-MB-231. Particulars: human, MDA-MB-231 breast cancer cells.
Procedure: (§1) After synthesizing the functionalized aminobenzoboroxoles, these molecules were evaluated for their general cytotoxicity against breast cancer cell lines (MDA-MB-231) and pancreatic cancer cell lines (MIAPaCa-2).
(§2) Human pancreatic cancer MIAPaCa-2 cells were purchased from ATCC and were maintained in D-MEM supplemented with 10% FBS, 2.5% horse serum, and 1% Penicillin Streptomycin in a humidified atmosphere of 5% CO2 at 37° C. Human breast cancer MDA-MB-231 cells were purchased from ATCC and were maintained in D-MEM supplemented with 10% FBS and 1% Penicillin Streptomycin in a humidified atmosphere of 5% CO2 at 37° C. […] DMSO was added as a negative control. To determine the cell viability, MTT (3-(4,5-dimethylthiazolyl-2)-2,5-diphenyltetrazolium bromide) was dissolved in PBS solution (5 mg/mL) and 10 μL was added to each well and incubated. After 4 hours, 100 μL of SDS (sodium dodecyl sulfate) solution (1 g in 10 mL of 0.01 N HCl) was added to solubilize formazan precipitate and incubated for an additional 4 hours. The absorbance of each well was then measured using a microplate reader at 570 nm. The absorbance of control wells was defined as 100% viability and all of the tested compounds were expressed as percentage relative to the control.
Data set [2] can be described thus: Cell viability assay (MTT), MIAPaCa-2. Particulars: human, MIAPaCa-2 pancreatic cancer cells.
Procedure: as §1, §2
Data set [3] deals with Human breast cancer MDA-MB-231 cells. Briefly: Cell viability assay (MTT), MDA-MB-231. Particulars: Homo sapiens, MDA-MB-231.
Procedure: as §1, §2
Data set [4] deals with Human pancreatic cancer MIAPaCa-2 cells. Description: Cell viability assay (MTT), MIAPaCa-2. Particulars: for activity against MIAPaCa-2 cell lines: 12.5 μM concentration; for IC50: Homo sapiens, MIA PaCa-2.
Procedure: as §1, §2

In the case of `O=C(O)c1ccc(CNc2ccc3c(c2)B(O)OC3)cc1` [Compound 7], the melting point is 221 to 223 °C. In data set [1], the viability at 72 h, 12.5 µM amounted to 100% and the viability at 72 h, 50 µM was determined as 124%. Moreover, in data set [2], the viability at 72 h, 12.5 µM is 71.3% and the viability at 72 h, 50 µM is 80.6%.

In turn, `OB1OCc2ccc(NCc3ccc(F)cc3)cc21` [Compound 3] came in with a melting point of 135 to 137 °C. Further, in data set [1], the viability at 72 h, 12.5 µM was found to be 84% and the viability at 72 h, 50 µM worked out at 91.7%. In data set [2], the viability at 72 h, 12.5 µM turned out to be 87.2% and the viability at 72 h, 50 µM amounted to 73.6%.

In turn, `N#Cc1ccc(CNc2ccc3c(c2)B(O)OC3)cc1` [Compound 8] gave a melting point of 141 to 143 °C. For the same compound, in data set [1], the viability at 72 h, 12.5 µM worked out at 77.7% and the viability at 72 h, 50 µM was found to be 109%. Besides, in data set [2], the viability at 72 h, 12.5 µM is 80.8% and the viability at 72 h, 50 µM was 47%.

As to `OB1OCc2ccc(NCc3ccc4c(c3)OCO4)cc21` [Compound 14], the melting point was in the range of 136 to 138 °C. Further, in data set [1], the viability at 72 h, 12.5 µM came out at 88.5% and the viability at 72 h, 50 µM was found to be 102%. Further, in data set [2], the viability at 72 h, 12.5 µM worked out at 88.9% and the viability at 72 h, 50 µM is 69%.

`O=NN(Cc1ccc(Cl)c(Cl)c1)c1ccc2c(c1)B(O)OC2` [Compound 22] had a melting point of 144 to 147 °C. In addition, in data set [1], the viability at 72 h, 12.5 µM is 122% and the viability at 72 h, 50 µM came to 146%. In addition, in data set [2], the viability at 72 h, 12.5 µM is 84.8% and the viability at 72 h, 50 µM turned out to be 59.9%.

The compound `O=C(NCCCl)N(Cc1ccccc1)c1ccc2c(c1)B(O)OC2` [Compound 27] gave a melting point of 138 to 140 °C. Also, in data set [1], the viability at 72 h, 12.5 µM stood at 135% and the viability at 72 h, 50 µM turned out to be 101%. In data set [2], the viability at 72 h, 12.5 µM turned out to be 104% and the viability at 72 h, 50 µM was found to be 61.8%.

Compound `OB1OCc2ccc(NCc3ccc(N4CCCCC4)cc3)cc21` [Compound 13] came in with a melting point of 65 to 67 °C. For the same compound, in data set [1], the viability at 72 h, 12.5 µM came to 93.9% and the viability at 72 h, 50 µM is 90.7%. Further, in data set [2], the viability at 72 h, 12.5 µM came to 92% and the viability at 72 h, 50 µM was found to be 49.5%.

Consider `OB1OCc2ccc(NCc3ccccc3)cc21` [Compound 2], for which the melting point lay in the range of 123 to 125 °C. Also, in data set [1], the viability at 72 h, 12.5 µM was 73.7% and the viability at 72 h, 50 µM came out at 80.2%. Further, in data set [2], the viability at 72 h, 12.5 µM was determined as 76.6% and the viability at 72 h, 50 µM is 34.5%.

`O=C(Nc1ccc([N+](=O)[O-])c(C(F)(F)F)c1)c1ccc(CNc2ccc3c(c2)B(O)OC3)cc1` [Compound 15] came in with a melting point of 117 to 119 °C.

Compound `O=NN(Cc1ccc(Cl)cc1Cl)c1ccc2c(c1)B(O)OC2` [Compound 21] yielded a melting point of 121 to 123 °C. In addition, in data set [1], the viability at 72 h, 12.5 µM was 134% and the viability at 72 h, 50 µM amounted to 106%. In data set [2], the viability at 72 h, 12.5 µM is 95.7% and the viability at 72 h, 50 µM was determined as 69.5%.

`CN(C)c1ccc(CNc2ccc3c(c2)B(O)OC3)cc1` [Compound 11] displayed a melting point of 122 to 124 °C. In data set [1], the viability at 72 h, 12.5 µM turned out to be 97.6% and the viability at 72 h, 50 µM is 71.1%. In addition, in data set [2], the viability at 72 h, 12.5 µM came out at 72.1% and the viability at 72 h, 50 µM turned out to be 78.4%.

The compound `CCCCN(CCCC)c1ccc(CNc2ccc3c(c2)B(O)OC3)cc1` [Compound 12] had a melting point of 94 to 96 °C. Also, in data set [1], the viability at 72 h, 12.5 µM is 106% and the viability at 72 h, 50 µM stood at 103%. In addition, in data set [2], the viability at 72 h, 12.5 µM stood at 89.1% and the viability at 72 h, 50 µM turned out to be 58.2%.

For `O=C(NC1CCCCC1)N(Cc1ccccc1)c1ccc2c(c1)B(O)OC2` [Compound 25], the melting point was 125 to 127 °C. In data set [1], the viability at 72 h, 12.5 µM worked out at 80.9% and the viability at 72 h, 50 µM worked out at 128%. For the same compound, in data set [2], the viability at 72 h, 12.5 µM was found to be 64.8% and the viability at 72 h, 50 µM amounted to 39.4%.

`O=C(Nc1ccccc1)N(Cc1ccccc1)c1ccc2c(c1)B(O)OC2` [Compound 23] displayed a melting point of 116 to 118 °C. Also, in data set [1], the viability at 72 h, 12.5 µM is 116% and the viability at 72 h, 50 µM was found to be 47%. Further, in data set [2], the viability at 72 h, 12.5 µM was 49.6% and the viability at 72 h, 50 µM turned out to be 30%.

The compound `COc1ccc(CN(N=O)c2ccc3c(c2)B(O)OC3)cc1` [Compound 18, 6-N-nitroso-N-(p-methoxybenzyl)amino-benzoboroxole] yielded a melting point of 109 to 111 °C. In data set [1], the viability at 72 h, 12.5 µM was determined as 119% and the viability at 72 h, 50 µM was 123%. Further, in data set [2], the viability at 72 h, 12.5 µM worked out at 83% and the viability at 72 h, 50 µM amounted to 61%.

`OB1OCc2ccc(NCc3ccc(F)cc3F)cc21` [Compound 4] registered a melting point of 136 to 138 °C. Besides, in data set [1], the viability at 72 h, 12.5 µM was found to be 80.2% and the viability at 72 h, 50 µM was 90%. Further, in data set [2], the viability at 72 h, 12.5 µM is 90.9% and the viability at 72 h, 50 µM was found to be 63.9%.

On to `OB1OCc2ccc(NCc3cc4ccccc4nc3Cl)cc21` [Compound 16], for which the melting point is 209 to 211 °C. Moreover, in data set [1], the viability at 72 h, 12.5 µM was determined as 44.3% and the viability at 72 h, 50 µM is 44.8%. The same compound gave a half-maximal inhibitory concentration (IC50) in data set [3] of 11.5 µM. In data set [2], the viability at 72 h, 12.5 µM came to 28.2% and the viability at 72 h, 50 µM was 28.6%. For the same compound, in data set [4], the “activity against MIAPaCa-2 cell lines” value is recorded as “showed activity” and 8.3 µM corresponded to half-maximal inhibition (IC50).

`OB1OCc2ccc(NCc3ccc(Cl)cc3Cl)cc21` [Compound 5] came in with a melting point of 106 to 108 °C. In data set [1], the viability at 72 h, 12.5 µM turned out to be 75.2% and the viability at 72 h, 50 µM is 75.7%. Moreover, in data set [2], the viability at 72 h, 12.5 µM worked out at 86.4% and the viability at 72 h, 50 µM amounted to 65.8%.

With `OB1OCc2ccc(NCc3ccc(Cl)c(Cl)c3)cc21` [Compound 6], the melting point is 128 to 130 °C. In data set [1], the viability at 72 h, 12.5 µM was 69.2% and the viability at 72 h, 50 µM was 68.7%. Besides, in data set [2], the viability at 72 h, 12.5 µM was 95.3% and the viability at 72 h, 50 µM is 62.6%.

`O=NN(Cc1ccc(F)cc1)c1ccc2c(c1)B(O)OC2` [Compound 19] gave a melting point of 121 to 123 °C. In addition, in data set [1], the viability at 72 h, 12.5 µM stood at 128% and the viability at 72 h, 50 µM worked out at 108%. In data set [2], the viability at 72 h, 12.5 µM was found to be 77.7% and the viability at 72 h, 50 µM turned out to be 62.8%.

`COc1ccc(CNc2ccc3c(c2)B(O)OC3)cc1` [Compound 10, 6-N-(p-methoxybenzyl)aminobenzoboroxole] returned a melting point of 122 to 124 °C. In addition, in data set [1], the viability at 72 h, 12.5 µM is 90.2% and the viability at 72 h, 50 µM was found to be 90%. Moreover, in data set [2], the viability at 72 h, 12.5 µM was 51.8% and the viability at 72 h, 50 µM stood at 37.9%.

As for `COc1ccc(CN(C(=O)NC2CCCCC2)c2ccc3c(c2)B(O)OC3)cc1` [Compound 26], the melting point fell in the range of 156 to 158 °C. In data set [1], the viability at 72 h, 12.5 µM was determined as 96.3% and the viability at 72 h, 50 µM was found to be 60.8%. In data set [2], the viability at 72 h, 12.5 µM turned out to be 45.5% and the viability at 72 h, 50 µM was determined as 25.1%.

`O=NN(Cc1ccccc1)c1ccc2c(c1)B(O)OC2` [Compound 17] returned a melting point of 108 to 110 °C. In addition, in data set [1], the viability at 72 h, 12.5 µM was 121% and the viability at 72 h, 50 µM was 115%. In data set [2], the viability at 72 h, 12.5 µM turned out to be 83.5% and the viability at 72 h, 50 µM was found to be 51.5%.

On to `Cc1ccc(CNc2ccc3c(c2)B(O)OC3)cc1` [Compound 9], for which the melting point fell in the range of 148 to 150 °C. Besides, in data set [1], the viability at 72 h, 12.5 µM was 84.1% and the viability at 72 h, 50 µM came out at 82.8%. Also, in data set [2], the viability at 72 h, 12.5 µM came out at 57.2% and the viability at 72 h, 50 µM is 45.9%.

Compound `COc1ccc(CN(C(=O)Nc2ccccc2)c2ccc3c(c2)B(O)OC3)cc1` [Compound 24] displayed a melting point of 104 to 106 °C. In data set [1], the viability at 72 h, 12.5 µM was determined as 63% and the viability at 72 h, 50 µM is 53.9%. Moreover, the IC50 in data set [3] was 11.9 µM. In data set [2], the viability at 72 h, 12.5 µM was found to be 22.4% and the viability at 72 h, 50 µM was determined as 17.5%. In addition, in data set [4], the “activity against MIAPaCa-2 cell lines” value is given as “showed activity” and 2.7 µM corresponded to half-maximal inhibition (IC50).

The compound `O=NN(Cc1ccc(F)cc1F)c1ccc2c(c1)B(O)OC2` [Compound 20] displayed a melting point of 125 to 127 °C. Further, in data set [1], the viability at 72 h, 12.5 µM is 122% and the viability at 72 h, 50 µM is 126%. In addition, in data set [2], the viability at 72 h, 12.5 µM is 70.3% and the viability at 72 h, 50 µM was determined as 70.5%.

In turn, `COc1ccc(CN(C(=O)NCCCl)c2ccc3c(c2)B(O)OC3)cc1` [Compound 28] returned a melting point of 134 to 136 °C. For the same compound, in data set [1], the viability at 72 h, 12.5 µM worked out at 95.8% and the viability at 72 h, 50 µM amounted to 63.2%. In data set [2], the viability at 72 h, 12.5 µM amounted to 74.9% and the viability at 72 h, 50 µM is 60.4%.
